Earlier results in patent publication US6335015B1, “Method of the prophylactic treatment of mastitis” (Astacarotene AB, priority 1997, dated 2002).

Assays:
[1] = test system: sows; conditions: feed supplemented with astaxanthin prior to parturition and during lactation
[2] = biological tests

CC1=C(/C=C/C(C)=C/C=C/C(C)=C/C=C/C=C(C)/C=C/C=C(C)/C=C/C2=C(C)C(=O)[C@@H](O)CC2(C)C)C(C)(C)C[C@H](O)C1=O [astaxanthin]
piglets born alive [1]: more piglets born alive
antioxidative properties compared to other carotenoids [2]: clearly the best antioxidative properties
